Assay type in all cases: in vivo
One data set relates to rice (japonica rice). Briefly: Transplanted rice safety evaluation. The following applies: 1000 g/ha, transplanted 3-leaf stage japonica rice, treated 5 days after transplantation, 21 days after treatment. From the text:
(§1) The activity level standard of harmful plants destruction (i. e. growth inhibition rate) is as follows: • Level 5: the growth inhibition rate is greater than 85%; • Level 4: the growth inhibition rate is equal to or greater than 60% and less than 85%; • Level 3: the growth inhibition rate is equal to or greater than 40% and less than 60%; • Level 2: the growth inhibition rate is equal to or greater than 20% and less than 40%; • Level 1: the growth inhibition rate is equal to or greater than 5% and less than 20%; • Level 0: the growth inhibition rate is less than 5%;
(§2) Transplanted rice safety evaluation and weed control effect evaluation in rice field:
In addition, the rice field soil that loaded into the 1/1,000,000 ha pot was leveled to keep water storage at 3-4 cm depth. The 3-leaf stage rice (japonica rice) was transplanted at 3 cm of transplanting depth the next day. The compound of the present invention was treated by the same way after 5 days of transplantation.
(§3) The fertility condition of Monochoria vaginalis 14 days and rice 21 days after the treatment of the compound of the invention with the naked eye.

The next data set relates to Indica rice. The data set can be described thus: Post-emergence test experiment (Table 4), crop safety. The following applies: 600 g/ha active ingredient, plus water 450 kg/ha, after 3 weeks.
Text: as §1
(§4) The above described growth inhibition rate is fresh weight inhibition rate.
(§5) Post-emergence test experiment: Monocotyledonous and dicotyledonous weed seeds and main crop seeds (i. e. wheat, corn, rice, soybean, cotton, oilseed, millet and sorghum.) were put into a plastic pot loaded with soil. Then covered with 0.5-2 cm soil, the seeds were allowed to grow in good greenhouse environment. The test plants were treated at 2-3 leaf stage 2 weeks after sowing. The test compounds of the invention were dissolved with acetone respectively, then added with tween-80, and using 1.5 liters per hectare of an emulsible concentrate of methyl oleate as a synergist, and diluted by certain amount of water to certain concentration. The solution was sprayed to the plants with a sprayer. Then the plants were cultured for 3 weeks in the greenhouse, and the experiment result of weed controlling effect after 3 weeks was listed in tables 3-4.
(§6) […] Echinochloa crusgalli and Cyperus iria were collected from Ningxia Hui Autonomous Region of China, which had evolved resistance to ALS inhibiting herbicides. • Control compound A:

In the next data set the test system is Japonica rice. Described as above. The following applies: 600 g/ha active ingredient, plus water 450 kg/ha, after 3 weeks.
Text: as §1, §4, §5, §6

Data set [1] has as its system Monochoria vaginalis. The data set can be described thus: Post-emergence test experiment (Table 3, 1000 g/ha). Particulars: post-emergence spray, after 3 weeks, fresh weight inhibition. An outline of the steps:
(§7)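 Weed seeds sown in soil-filled pots in greenhouse, sprayed at 2-3 leaf stage (2 weeks after sowing) with compound in acetone/tween-80 plus methyl oleate emulsible concentrate (1.5 L/ha) diluted in water. Fresh-weight growth inhibition scored after 3 weeks on 0-5 scale (5: >85%, 0: <5%).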

Another data set concerns Leptochloa chinensis. Described as above. Particulars: post-emergence spray, after 3 weeks, fresh weight inhibition. An outline of the steps: as §7
A further data set has as its system Abutilon theophrasti. The data set is described as above. The following applies: post-emergence spray, after 3 weeks, fresh weight inhibition. An outline of the steps:
as §7

A further data set relates to Setaria viridis. The description is as above. The following applies: post-emergence spray, after 3 weeks, fresh weight inhibition. An outline of the steps: as §7
The next data set has as its system Galium spurium. The description is as above. Particulars: post-emergence spray, after 3 weeks, fresh weight inhibition. An outline of the steps: as §7
The next data set relates to Digitaria sanguinalis. The description is as above. The following applies: post-emergence spray, after 3 weeks, fresh weight inhibition. An outline of the steps:
as §7

Data set [2] relates to Monochoria vaginalis. Briefly: Weed control effect evaluation in rice field. The following applies: 1000 g/ha, paddy water application at 0.5 leaf stage, 14 days after treatment, weeds resistant to pyrazosulfuron-ethyl and penoxsulam.
Text: as §1, §2
Rice field soil was loaded into a 1/1,000,000 ha pot. The seeds of Monochoria vaginalis were sowed and gently covered with soil, then left to stand still in greenhouse in the state of 0.5-1 cm of water storage. It was kept at 3-4 cm of water storage thereafter. The weeds were treated by dripping the WP or SC water diluents prepared according to the common preparation method of the compounds of the present invention with pipette homogeneously to achieve specified effective amount when Monochoria vaginalis reached 0. 5 leaf stage.
as §3
Note: The seeds of Monochoria vaginalis were collected from Heilongjing Province of China.

Data set [3] deals with ALS resistant Echinochloa crusgalli. Briefly: Post-emergence test experiment (Table 4), weed control. The following applies: 600 g/ha active ingredient, plus water 450 kg/ha, after 3 weeks.
Text: as §1, §4, §5, §6

In data set [4] the test system is ALS resistant Cyperus iria. Described as above. The following applies: 600 g/ha active ingredient, plus water 450 kg/ha, after 3 weeks.
Text: as §1, §4, §5, §6

Take `CC(Cl)CCSC(=O)C(C)Oc1nc(F)c(Cl)c(N)c1Cl` (stereo not drawn) [Compound 77]: in the data set with rice (japonica rice), the “Rice, activity standard level 0-5 (safety)” value (from here on “Rice … (safety)”) is listed as 0 (Level 0: the growth inhibition rate is less than 5%). For the same compound, the “Indica rice, activity level (growth inhibition rate)” value in the data set with Indica rice is reported as 0 (Level 0: the growth inhibition rate is less than 5%). The “Japonica rice, activity level (growth inhibition rate)” value with Japonica rice is given as 0 (Level 0: the growth inhibition rate is less than 5%). Further, the “Activity level (growth inhibition rate) Monochoria Vaginalis” value with Monochoria vaginalis [1] is listed as 5 (Level 5: the growth inhibition rate is greater than 85%). Moreover, the “Activity level (growth inhibition rate) Leptochloa chinensis” value in the data set with Leptochloa chinensis is 5 (Level 5: the growth inhibition rate is greater than 85%). Besides, the “Activity level (growth inhibition rate) Abutilon theophrasti” value in the data set on Abutilon theophrasti is on record as 5 (Level 5: the growth inhibition rate is greater than 85%). Moreover, the “Activity level (growth inhibition rate) Setaria viridis” value in the data set with Setaria viridis is 5 (Level 5: the growth inhibition rate is greater than 85%). The “Activity level (growth inhibition rate) Galium spurium” value in the data set with Galium spurium is 5 (Level 5: the growth inhibition rate is greater than 85%). Further, the “Activity level (growth inhibition rate) Digitaria sanguinalis” value in the data set on Digitaria sanguinalis is recorded as 5 (Level 5: the growth inhibition rate is greater than 85%). Moreover, the “Monochoria Vaginalis, activity standard level 0-5” value in the data set on Monochoria vaginalis [2] is reported as 5 (Level 5: the growth inhibition rate is greater than 85%). The “ALS resistant Echinochloa crusgalli, activity level (growth inhibition rate)” value in [3] is 5 (Level 5: the growth inhibition rate is greater than 85%). The “ALS resistant Cyperus iria, activity level (growth inhibition rate)” value in [4] is reported as 5 (Level 5: the growth inhibition rate is greater than 85%).

Take `CC(Oc1nc(F)c(Cl)c(N)c1Cl)C(=O)SCCCC(F)(F)F` (stereo not drawn) [Compound 79]: the “Rice … (safety)” value in the data set with rice (japonica rice) is listed as 0 (Level 0: the growth inhibition rate is less than 5%). Also, the “Indica rice, activity level (growth inhibition rate)” value in the data set on Indica rice was 0 (Level 0: the growth inhibition rate is less than 5%). Besides, the “Japonica rice, activity level (growth inhibition rate)” value with Japonica rice is given as 0 (Level 0: the growth inhibition rate is less than 5%). The “Activity level (growth inhibition rate) Monochoria Vaginalis” value with Monochoria vaginalis [1] is recorded as 5 (Level 5: the growth inhibition rate is greater than 85%). Besides, in the data set with Leptochloa chinensis, the “Activity level (growth inhibition rate) Leptochloa chinensis” value was 5 (Level 5: the growth inhibition rate is greater than 85%). Besides, in the data set on Abutilon theophrasti, the “Activity level (growth inhibition rate) Abutilon theophrasti” value is 5 (Level 5: the growth inhibition rate is greater than 85%). The “Activity level (growth inhibition rate) Setaria viridis” value in the data set on Setaria viridis was 5 (Level 5: the growth inhibition rate is greater than 85%). Besides, the “Activity level (growth inhibition rate) Galium spurium” value in the data set on Galium spurium is listed as 5 (Level 5: the growth inhibition rate is greater than 85%). Besides, the “Activity level (growth inhibition rate) Digitaria sanguinalis” value with Digitaria sanguinalis is on record as 5 (Level 5: the growth inhibition rate is greater than 85%). Further, the “Monochoria Vaginalis, activity standard level 0-5” value with Monochoria vaginalis [2] is 5 (Level 5: the growth inhibition rate is greater than 85%). In [3], the “ALS resistant Echinochloa crusgalli, activity level (growth inhibition rate)” value is reported as 5 (Level 5: the growth inhibition rate is greater than 85%). Also, the “ALS resistant Cyperus iria, activity level (growth inhibition rate)” value in data set [4] is on record as 5 (Level 5: the growth inhibition rate is greater than 85%).

`CC(Oc1nc(F)c(Cl)c(N)c1Cl)C(=O)SC1CCCCC1` (stereo not drawn) [Compound 82]: the “Rice … (safety)” value with rice (japonica rice) was 0 (Level 0: the growth inhibition rate is less than 5%). Moreover, the “Indica rice, activity level (growth inhibition rate)” value in the data set with Indica rice is 0 (Level 0: the growth inhibition rate is less than 5%). Further, the “Japonica rice, activity level (growth inhibition rate)” value in the data set on Japonica rice is 0 (Level 0: the growth inhibition rate is less than 5%). Further, in the data set on Monochoria vaginalis [1], the “Activity level (growth inhibition rate) Monochoria Vaginalis” value is recorded as 5 (Level 5: the growth inhibition rate is greater than 85%). For the same compound, the “Activity level (growth inhibition rate) Leptochloa chinensis” value in the data set with Leptochloa chinensis is recorded as 5 (Level 5: the growth inhibition rate is greater than 85%). The “Activity level (growth inhibition rate) Abutilon theophrasti” value with Abutilon theophrasti is given as 5 (Level 5: the growth inhibition rate is greater than 85%). For the same compound, in the data set on Setaria viridis, the “Activity level (growth inhibition rate) Setaria viridis” value is reported as 5 (Level 5: the growth inhibition rate is greater than 85%). In addition, in the data set with Galium spurium, the “Activity level (growth inhibition rate) Galium spurium” value is 5 (Level 5: the growth inhibition rate is greater than 85%). Further, in the data set on Digitaria sanguinalis, the “Activity level (growth inhibition rate) Digitaria sanguinalis” value is 5 (Level 5: the growth inhibition rate is greater than 85%). Also, in the data set on Monochoria vaginalis [2], the “Monochoria Vaginalis, activity standard level 0-5” value is given as 5 (Level 5: the growth inhibition rate is greater than 85%). Also, in [3], the “ALS resistant Echinochloa crusgalli, activity level (growth inhibition rate)” value is on record as 5 (Level 5: the growth inhibition rate is greater than 85%). Moreover, the “ALS resistant Cyperus iria, activity level (growth inhibition rate)” value in data set [4] was 5 (Level 5: the growth inhibition rate is greater than 85%).

Turning to `CCCCOCCSC(=O)C(C)Oc1nc(F)c(Cl)c(N)c1Cl` (stereo not drawn) [Compound 87], the “Rice … (safety)” value in the data set with rice (japonica rice) is given as 0 (Level 0: the growth inhibition rate is less than 5%). Moreover, in the data set on Indica rice, the “Indica rice, activity level (growth inhibition rate)” value is 0 (Level 0: the growth inhibition rate is less than 5%). For the same compound, in the data set with Japonica rice, the “Japonica rice, activity level (growth inhibition rate)” value is 0 (Level 0: the growth inhibition rate is less than 5%). For the same compound, the “Activity level (growth inhibition rate) Monochoria Vaginalis” value with Monochoria vaginalis [1] was 5 (Level 5: the growth inhibition rate is greater than 85%). Moreover, the “Activity level (growth inhibition rate) Leptochloa chinensis” value with Leptochloa chinensis is listed as 5 (Level 5: the growth inhibition rate is greater than 85%). The “Activity level (growth inhibition rate) Abutilon theophrasti” value in the data set with Abutilon theophrasti is on record as 5 (Level 5: the growth inhibition rate is greater than 85%). Also, the “Activity level (growth inhibition rate) Setaria viridis” value in the data set with Setaria viridis is 5 (Level 5: the growth inhibition rate is greater than 85%). The “Activity level (growth inhibition rate) Galium spurium” value in the data set on Galium spurium is listed as 5 (Level 5: the growth inhibition rate is greater than 85%). Moreover, in the data set on Digitaria sanguinalis, the “Activity level (growth inhibition rate) Digitaria sanguinalis” value is 5 (Level 5: the growth inhibition rate is greater than 85%). Moreover, the “Monochoria Vaginalis, activity standard level 0-5” value in the data set on Monochoria vaginalis [2] was 5 (Level 5: the growth inhibition rate is greater than 85%). The “ALS resistant Echinochloa crusgalli, activity level (growth inhibition rate)” value in data set [3] is reported as 5 (Level 5: the growth inhibition rate is greater than 85%). Also, the “ALS resistant Cyperus iria, activity level (growth inhibition rate)” value in [4] is 5 (Level 5: the growth inhibition rate is greater than 85%).

Regarding `COCCCSC(=O)C(C)Oc1nc(F)c(Cl)c(N)c1Cl` (stereo not drawn) [Compound 88], the “Rice … (safety)” value in the data set on rice (japonica rice) is on record as 0 (Level 0: the growth inhibition rate is less than 5%). Moreover, in the data set on Indica rice, the “Indica rice, activity level (growth inhibition rate)” value is 0 (Level 0: the growth inhibition rate is less than 5%). Moreover, the “Japonica rice, activity level (growth inhibition rate)” value in the data set with Japonica rice was 0 (Level 0: the growth inhibition rate is less than 5%). Further, the “Activity level (growth inhibition rate) Monochoria Vaginalis” value with Monochoria vaginalis [1] is on record as 5 (Level 5: the growth inhibition rate is greater than 85%). Further, the “Activity level (growth inhibition rate) Leptochloa chinensis” value in the data set with Leptochloa chinensis was 5 (Level 5: the growth inhibition rate is greater than 85%). Further, the “Activity level (growth inhibition rate) Abutilon theophrasti” value in the data set on Abutilon theophrasti is 5 (Level 5: the growth inhibition rate is greater than 85%). Moreover, the “Activity level (growth inhibition rate) Setaria viridis” value in the data set on Setaria viridis is on record as 5 (Level 5: the growth inhibition rate is greater than 85%). Moreover, the “Activity level (growth inhibition rate) Galium spurium” value in the data set on Galium spurium is reported as 5 (Level 5: the growth inhibition rate is greater than 85%). The “Activity level (growth inhibition rate) Digitaria sanguinalis” value in the data set with Digitaria sanguinalis is given as 5 (Level 5: the growth inhibition rate is greater than 85%). The “Monochoria Vaginalis, activity standard level 0-5” value in the data set on Monochoria vaginalis [2] is 5 (Level 5: the growth inhibition rate is greater than 85%). The “ALS resistant Echinochloa crusgalli, activity level (growth inhibition rate)” value in [3] is reported as 5 (Level 5: the growth inhibition rate is greater than 85%). In data set [4], the “ALS resistant Cyperus iria, activity level (growth inhibition rate)” value was 5 (Level 5: the growth inhibition rate is greater than 85%).
